Values of other authors in patent US9820994B2, “Cerclage pessary containing progesterone of prolonged, sustained, and continuous release useful for prevention of preterm birth” (Laboratorios Andromaco S.A., priority 2014, dated 2017).

Test system: women at risk of preterm birth (short cervix / history of preterm birth)

SMILES: CC(=O)[C@H]1CC[C@H]2[C@@H]3CCC4=CC(=O)CC[C@]4(C)[C@H]3CC[C@]12C [progesterone]
- Reduction in rate of spontaneous preterm birth before 33-34 weeks (250 mg IM weekly, 200 mg daily vaginal suppositories, 90 mg vaginal gel): approximately 40%
- Rate of births before 34 weeks (vaginal progesterone group, singleton, previous preterm birth, cervical length less than 25 mm (Alfirevic et al., 2013)): ~30%
- Reduction of the rate of spontaneous preterm birth before 33-34 weeks (vaginally administered, patients with short cervix): 40-45%
